Measured values: paper PMC5853558, “De novo identification of lipid II binding lipopeptides with antibacterial activity against vancomycin-resistant bacteria” (Chemical Science, 2017)
≈ marks a conversion by molar mass, not a printed value. *1 amine or outer side, *2 acyl side, *3 side chain or, on linkers, in order; H or OH if unused. Where a SMILES comes first, the peptide text is derived from it. Bridges are numbered along the chain shown (N, C = ends). [ ]: non-standard residue; d: D form. The star is where a group is joined. TBMB = c1c(C[*:1])cc(C[*:3])cc1C[*:2]; NHDecyl = CCCCCCCCCCN*

Tested on: M. luteus (NCTC2665)
Experiment: microbe, parasite or virus in culture
Type: cell-based, Micrococcus luteus
Settings: for MIC against M. luteus: Table 1, non-lipidated bicyclic peptides, broth microdilution in TSB, 16 h, read visually, n.a. = no activity, highest tested concentration 512 μg mL^–1; for MIC of Ala scan of P8-D against M. luteus: Supplemental table S8, non-lipidated P8 variants, broth microdilution, highest tested 512 µg/ml
Experimental: Section 4 Biological and biochemical experiments
4.1 Minimum inhibitory concentration assay
MIC values were determined by using the broth microdilution method. Peptides were dissolved first in DMSO and diluted with broth so that the final peptide concentration was 1024 µg/ml and the DMSO concentration was 4%. Peptide serial dilutions were made in TSB in a polypropylene 96-wells plate using 50 µl volumes. An overnight culture of the organism of interest was diluted to and OD600 of 0.01 and grown until they reach 0.5. The culture was then diluted to 1 x 10^6 CFU/ml and 50 µl of this suspension was added to each well. The highest concentrations were then 512 µg/ml peptide and 2% DMSO. The plates were incubated at the preferred growth temperature of the organism that was used and 250 rpm. […] When […]
determining the MICs of the lipidated peptides, the lipopeptides were first dissolved in DMSO and diluted with TSB so that the peptide concentration was 128 µg/ml and the DMSO concentration was 4%. After inoculation the highest peptide concentration evaluated was 64 µg/ml and the DMSO concentration was 2%. A DMSO control was tested for each strain to ensure the DMSO did not affect the growth of the particular strain. […]

Structure (SMILES)	MIC of Ala scan of P8-D against M. luteus	other results
CC[C@H](C)[C@@H]1NC(=O)[C@@H]2CSCc3cc(cc(c3)CSC[C@@H](C(=O)NCC(N)=O)NC(=O)[C@H](CCCNC(=N)N)NC(=O)[C@H]([C@@H](C)CC)NC(=O)[C@H](CC(N)=O)NC(=O)[C@H](C)NC(=O)[C@H](CO)NC1=O)CSC[C@H](NC(=O)[C@H](C)N)C(=O)N[C@@H](CCCNC(=N)N)C(=O)N1CCC[C@H]1C(=O)N[C@@H](CCC(N)=O)C(=O)N[C@@H](CCCCN)C(=O)N[C@@H](Cc1ccccc1)C(=O)N[C@@H](CC(N)=O)C(=O)N2 [Peptide P4] (H-ACRPQKFNCISANIRCG-NH2; linker 2-9-16 via TBMB; N-terminus assumed)	–	MIC against M. luteus: 64 μg mL^–1
CCCCCCCCCCNC(=O)CNC(=O)[C@@H]1CSCc2cc3cc(c2)CSC[C@H](NC(=O)[C@H](Cc2ccc(O)cc2)NC(=O)[C@H](Cc2c[nH]c4ccccc24)NC(=O)[C@H](CC(=O)O)NC(=O)[C@H](C(C)C)NC(=O)[C@@H]2CCCN2C(=O)[C@H](Cc2ccc(O)cc2)NC(=O)[C@@H](NC(=O)[C@H](C)N)CSC3)C(=O)N[C@@H](CC(C)C)C(=O)N[C@@H](Cc2ccccc2)C(=O)N[C@@H](CCC(N)=O)C(=O)N[C@@H]([C@@H](C)O)C(=O)N[C@@H](C(C)C)C(=O)N[C@@H](CC(=O)O)C(=O)N1 [Peptide P6-C10] (H-ACYPVDWYCLFQTVDCG-NHDecyl; linker 2-9-16 via TBMB; N-terminus assumed)	–	MIC M. luteus (Supplemental table S6, lipidated phage display hits, n.a. = not active, highest tested conc 64 µg/ml): 2 µg/mL (≈ 0.894 µM)
CC(C)C[C@@H]1NC(=O)[C@@H]2CSCc3cc(cc(c3)CSC[C@@H](C(=O)NCC(N)=O)NC(=O)[C@H](CC(=O)O)NC(=O)[C@H](C(C)C)NC(=O)[C@H]([C@@H](C)O)NC(=O)[C@H](CCC(N)=O)NC(=O)[C@H](Cc3ccccc3)NC1=O)CSC[C@H](NC(=O)[C@H](C)N)C(=O)N[C@@H](Cc1ccc(O)cc1)C(=O)N1CCC[C@H]1C(=O)N[C@@H](C(C)C)C(=O)N[C@@H](CC(=O)O)C(=O)N[C@@H](Cc1c[nH]c3ccccc13)C(=O)N[C@@H](Cc1ccc(O)cc1)C(=O)N2 [Peptide P6] (H-ACYPVDWYCLFQTVDCG-NH2; linker 2-9-16 via TBMB; N-terminus assumed)	–	MIC against M. luteus: 128 μg mL^–1
CC(C)C[C@H]1NC(=O)[C@H](NC(=O)[C@@H](C)N)CSCc2cc3cc(c2)CSC[C@@H](NC(=O)[C@@H](CC(C)C)NC(=O)[C@@H](CC(C)C)NC(=O)[C@@H](CO)NC(=O)[C@@H](CCC(N)=O)NC(=O)[C@@H](CC(C)C)NC1=O)C(=O)N1CCC[C@@H]1C(=O)N[C@H](Cc1ccc(O)cc1)C(=O)N[C@H](CO)C(=O)N[C@H]([C@H](C)O)C(=O)N[C@H](C)C(=O)N[C@H](CCCNC(=N)N)C(=O)N[C@@H](C(=O)NCC(N)=O)CSC3 [Peptide P8-D-H14A] (H-[dA][dC][dL][dL][dQ][dS][dL][dL][dC][dP][dY][dS][dT][dA][dR][dC]G-NH2; linker 2-9-16 via TBMB; N-terminus assumed)	64 to 128 µg/mL	–
CC(C)C[C@H]1NC(=O)[C@@H](C)NC(=O)[C@H](NC(=O)[C@@H](C)N)CSCc2cc3cc(c2)CSC[C@@H](NC(=O)[C@@H](CC(C)C)NC(=O)[C@@H](CC(C)C)NC(=O)[C@@H](CO)NC(=O)[C@@H](CCC(N)=O)NC1=O)C(=O)N1CCC[C@@H]1C(=O)N[C@H](Cc1ccc(O)cc1)C(=O)N[C@H](CO)C(=O)N[C@H]([C@H](C)O)C(=O)N[C@H](Cc1c[nH]cn1)C(=O)N[C@H](CCCNC(=N)N)C(=O)N[C@@H](C(=O)NCC(N)=O)CSC3 [Peptide P8-D-L3A] (H-[dA][dC][dA][dL][dQ][dS][dL][dL][dC][dP][dY][dS][dT][dH][dR][dC]G-NH2; linker 2-9-16 via TBMB; N-terminus assumed)	> 512 µg/mL	–
CC(C)C[C@H]1NC(=O)[C@H](NC(=O)[C@@H](C)N)CSCc2cc3cc(c2)CSC[C@@H](NC(=O)[C@@H](CC(C)C)NC(=O)[C@@H](CC(C)C)NC(=O)[C@@H](CO)NC(=O)[C@@H](CCC(N)=O)NC(=O)[C@@H](C)NC1=O)C(=O)N1CCC[C@@H]1C(=O)N[C@H](Cc1ccc(O)cc1)C(=O)N[C@H](CO)C(=O)N[C@H]([C@H](C)O)C(=O)N[C@H](Cc1c[nH]cn1)C(=O)N[C@H](CCCNC(=N)N)C(=O)N[C@@H](C(=O)NCC(N)=O)CSC3 [Peptide P8-D-L4A] (H-[dA][dC][dL][dA][dQ][dS][dL][dL][dC][dP][dY][dS][dT][dH][dR][dC]G-NH2; linker 2-9-16 via TBMB; N-terminus assumed)	> 512 µg/mL	–
CC(C)C[C@H]1NC(=O)[C@@H](C)NC(=O)[C@@H](CO)NC(=O)[C@@H](CCC(N)=O)NC(=O)[C@@H](CC(C)C)NC(=O)[C@@H](CC(C)C)NC(=O)[C@H](NC(=O)[C@@H](C)N)CSCc2cc3cc(c2)CSC[C@@H](NC1=O)C(=O)N1CCC[C@@H]1C(=O)N[C@H](Cc1ccc(O)cc1)C(=O)N[C@H](CO)C(=O)N[C@H]([C@H](C)O)C(=O)N[C@H](Cc1c[nH]cn1)C(=O)N[C@H](CCCNC(=N)N)C(=O)N[C@@H](C(=O)NCC(N)=O)CSC3 [Peptide P8-D-L7A] (H-[dA][dC][dL][dL][dQ][dS][dA][dL][dC][dP][dY][dS][dT][dH][dR][dC]G-NH2; linker 2-9-16 via TBMB; N-terminus assumed)	512 µg/mL	–
CC(C)C[C@H]1NC(=O)[C@@H](CO)NC(=O)[C@@H](CCC(N)=O)NC(=O)[C@@H](CC(C)C)NC(=O)[C@@H](CC(C)C)NC(=O)[C@H](NC(=O)[C@@H](C)N)CSCc2cc3cc(c2)CSC[C@@H](NC(=O)[C@@H](C)NC1=O)C(=O)N1CCC[C@@H]1C(=O)N[C@H](Cc1ccc(O)cc1)C(=O)N[C@H](CO)C(=O)N[C@H]([C@H](C)O)C(=O)N[C@H](Cc1c[nH]cn1)C(=O)N[C@H](CCCNC(=N)N)C(=O)N[C@@H](C(=O)NCC(N)=O)CSC3 [Peptide P8-D-L8A] (H-[dA][dC][dL][dL][dQ][dS][dL][dA][dC][dP][dY][dS][dT][dH][dR][dC]G-NH2; linker 2-9-16 via TBMB; N-terminus assumed)	128 to 256 µg/mL	–
CC(C)C[C@H]1NC(=O)[C@H](NC(=O)[C@@H](C)N)CSCc2cc3cc(c2)CSC[C@@H](NC(=O)[C@@H](CC(C)C)NC(=O)[C@@H](CC(C)C)NC(=O)[C@@H](CO)NC(=O)[C@@H](CCC(N)=O)NC(=O)[C@@H](CC(C)C)NC1=O)C(=O)N[C@H](C)C(=O)N[C@H](Cc1ccc(O)cc1)C(=O)N[C@H](CO)C(=O)N[C@H]([C@H](C)O)C(=O)N[C@H](Cc1c[nH]cn1)C(=O)N[C@H](CCCNC(=N)N)C(=O)N[C@@H](C(=O)NCC(N)=O)CSC3 [Peptide P8-D-P10A] (H-[dA][dC][dL][dL][dQ][dS][dL][dL][dC][dA][dY][dS][dT][dH][dR][dC]G-NH2; linker 2-9-16 via TBMB; N-terminus assumed)	128 µg/mL	–
CC(C)C[C@H]1NC(=O)[C@@H](CC(C)C)NC(=O)[C@H](NC(=O)[C@@H](C)N)CSCc2cc3cc(c2)CSC[C@@H](NC(=O)[C@@H](CC(C)C)NC(=O)[C@@H](CC(C)C)NC(=O)[C@@H](CO)NC(=O)[C@@H](C)NC1=O)C(=O)N1CCC[C@@H]1C(=O)N[C@H](Cc1ccc(O)cc1)C(=O)N[C@H](CO)C(=O)N[C@H]([C@H](C)O)C(=O)N[C@H](Cc1c[nH]cn1)C(=O)N[C@H](CCCNC(=N)N)C(=O)N[C@@H](C(=O)NCC(N)=O)CSC3 [Peptide P8-D-Q5A] (H-[dA][dC][dL][dL][dA][dS][dL][dL][dC][dP][dY][dS][dT][dH][dR][dC]G-NH2; linker 2-9-16 via TBMB; N-terminus assumed)	> 512 µg/mL	–
CC(C)C[C@H]1NC(=O)[C@H](NC(=O)[C@@H](C)N)CSCc2cc3cc(c2)CSC[C@@H](NC(=O)[C@@H](CC(C)C)NC(=O)[C@@H](CC(C)C)NC(=O)[C@@H](CO)NC(=O)[C@@H](CCC(N)=O)NC(=O)[C@@H](CC(C)C)NC1=O)C(=O)N1CCC[C@@H]1C(=O)N[C@H](Cc1ccc(O)cc1)C(=O)N[C@H](CO)C(=O)N[C@H]([C@H](C)O)C(=O)N[C@H](Cc1c[nH]cn1)C(=O)N[C@H](C)C(=O)N[C@@H](C(=O)NCC(N)=O)CSC3 [Peptide P8-D-R15A] (H-[dA][dC][dL][dL][dQ][dS][dL][dL][dC][dP][dY][dS][dT][dH][dA][dC]G-NH2; linker 2-9-16 via TBMB; N-terminus assumed)	128 to 256 µg/mL	–
CC(C)C[C@H]1NC(=O)[C@@H](C)NC(=O)[C@@H](CCC(N)=O)NC(=O)[C@@H](CC(C)C)NC(=O)[C@@H](CC(C)C)NC(=O)[C@H](NC(=O)[C@@H](C)N)CSCc2cc3cc(c2)CSC[C@@H](NC(=O)[C@@H](CC(C)C)NC1=O)C(=O)N1CCC[C@@H]1C(=O)N[C@H](Cc1ccc(O)cc1)C(=O)N[C@H](CO)C(=O)N[C@H]([C@H](C)O)C(=O)N[C@H](Cc1c[nH]cn1)C(=O)N[C@H](CCCNC(=N)N)C(=O)N[C@@H](C(=O)NCC(N)=O)CSC3 [Peptide P8-D-S6A] (H-[dA][dC][dL][dL][dQ][dA][dL][dL][dC][dP][dY][dS][dT][dH][dR][dC]G-NH2; linker 2-9-16 via TBMB; N-terminus assumed)	64 to 128 µg/mL	–
